Experiments:
Mu-type opioid receptor [1] = target: T1, Mu-type opioid receptor (Homo sapiens, UniProt P35372); test: Inhibition of loperamide-stimulated [35S]GTP-gamma-S binding to membranes containing mu opioid receptor; format: functional
Mu-type opioid receptor [2] = target: T1, Mu-type opioid receptor; test: Displacement of [3H]diprenorphine from human cloned mu opioid receptor
[3] = target: Kappa-type opioid receptor (Homo sapiens, UniProt P41145); test: Displacement of [3H]diprenorphine from human cloned kappa opioid receptor
Kappa-type opioid receptor, sequence (P41145 whole entry): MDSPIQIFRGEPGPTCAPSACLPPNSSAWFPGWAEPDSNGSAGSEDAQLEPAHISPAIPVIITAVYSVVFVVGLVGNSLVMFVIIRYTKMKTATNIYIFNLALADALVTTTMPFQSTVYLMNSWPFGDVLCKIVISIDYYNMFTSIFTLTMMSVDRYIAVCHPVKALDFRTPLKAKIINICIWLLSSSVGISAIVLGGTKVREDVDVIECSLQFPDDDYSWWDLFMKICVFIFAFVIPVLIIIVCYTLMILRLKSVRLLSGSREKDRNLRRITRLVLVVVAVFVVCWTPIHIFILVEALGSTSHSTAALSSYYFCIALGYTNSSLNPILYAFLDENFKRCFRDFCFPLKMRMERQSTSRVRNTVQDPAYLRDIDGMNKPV

[4] = target: Delta-type opioid receptor (Homo sapiens, UniProt P41143); test: Displacement of [3H]diprenorphine from human cloned delta opioid receptor
Delta-type opioid receptor, sequence (P41143 whole entry): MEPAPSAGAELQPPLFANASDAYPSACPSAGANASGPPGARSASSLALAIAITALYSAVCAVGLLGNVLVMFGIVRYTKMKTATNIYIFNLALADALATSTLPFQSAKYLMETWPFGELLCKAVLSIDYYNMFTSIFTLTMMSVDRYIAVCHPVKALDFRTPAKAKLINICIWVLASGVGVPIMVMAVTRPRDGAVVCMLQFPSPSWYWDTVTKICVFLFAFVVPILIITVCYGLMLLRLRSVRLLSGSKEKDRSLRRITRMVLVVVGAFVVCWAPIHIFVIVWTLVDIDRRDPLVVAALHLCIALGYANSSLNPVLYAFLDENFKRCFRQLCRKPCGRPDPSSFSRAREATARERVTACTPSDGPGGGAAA

T1 sequence (P35372 whole entry): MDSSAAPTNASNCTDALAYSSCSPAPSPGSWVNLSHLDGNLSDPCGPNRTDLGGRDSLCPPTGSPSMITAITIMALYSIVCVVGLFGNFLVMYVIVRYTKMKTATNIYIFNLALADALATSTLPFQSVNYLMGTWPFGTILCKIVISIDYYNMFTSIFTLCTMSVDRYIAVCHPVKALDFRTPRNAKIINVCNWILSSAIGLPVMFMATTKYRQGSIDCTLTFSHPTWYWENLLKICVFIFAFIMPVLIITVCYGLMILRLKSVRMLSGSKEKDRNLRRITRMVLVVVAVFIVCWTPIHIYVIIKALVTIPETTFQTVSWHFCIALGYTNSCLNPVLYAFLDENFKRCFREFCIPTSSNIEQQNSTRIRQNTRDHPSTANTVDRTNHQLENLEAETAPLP

Structure (SMILES)	IC50 (Mu-type opioid receptor [1]) [nM]	Ki (Mu-type opioid receptor [2]) [nM]	Ki [3] [nM]	Ki [4] [nM]
CCC[C@@H]1C[C@@](C)(c2cccc(O)c2)[C@@H](C)CN1Cc1ccccc1	170	700	360	880
C[C@H]1CN(CCc2ccccc2)[C@H](CCc2ccccc2)C[C@@]1(C)c1cccc(O)c1	210	160	790	610
CCCCCN1C[C@H](C)[C@](C)(c2cccc(O)c2)C[C@H]1CCC	210	380	570	> 1000
CC(C)[C@@H]1C[C@@](C)(c2cccc(O)c2)[C@@H](C)CN1CCc1ccccc1	620	270	> 1000	> 1000
C[C@H]1CN(CCc2ccccc2)[C@H](CCNC(=O)c2ccccc2)C[C@@]1(C)c1cccc(O)c1	130	59	200	710
C[C@@H]1C[C@@](C)(c2cccc(O)c2)[C@@H](C)CN1CCc1ccccc1	50	15	100	65
CCC[C@@H]1C[C@@](C)(c2cccc(O)c2)[C@@H](C)CN1	> 1000	560	690	> 1000
CCCC[C@@H]1C[C@@](C)(c2cccc(O)c2)[C@@H](C)CN1CCc1ccccc1	120	110	200	580
CC[C@@H]1C[C@@](C)(c2cccc(O)c2)[C@@H](C)CN1CCc1ccccc1	90	75	710	680
CCC[C@@H]1C[C@@](C)(c2cccc(O)c2)[C@@H](C)CN1C	170	520	220	> 1000
CCCCCCN1C[C@H](C)[C@](C)(c2cccc(O)c2)C[C@H]1CCC	39	47	150	340
C[C@H]1CN(CCc2ccccc2)[C@H](CCN2CCCC2)C[C@@]1(C)c1cccc(O)c1	> 1000	> 1000	> 1000	> 1000
CCCCCCCN1C[C@H](C)[C@](C)(c2cccc(O)c2)C[C@H]1CCC	9	13	57	80
C[C@H]1CN(CCc2ccccc2)[C@H](CCN)C[C@@]1(C)c1cccc(O)c1	390	780	510	> 1000
CC(=O)NCC[C@@H]1C[C@@](C)(c2cccc(O)c2)[C@@H](C)CN1CCc1ccccc1	130	190	620	> 1000
CCCCN1C[C@H](C)[C@](C)(c2cccc(O)c2)C[C@H]1CCC	290	550	610	> 1000
C[C@H]1CN(CCc2ccccc2)[C@H](c2ccccc2)C[C@@]1(C)c1cccc(O)c1	> 1000	280	290	260
CCC[C@@H]1C[C@@](C)(c2cccc(O)c2)[C@@H](C)CN1CCC	320	430	360	> 1000
C[C@H]1CN(CCc2ccccc2)[C@H](Cc2ccccc2)C[C@@]1(C)c1cccc(O)c1	280	290	920	800
CCC[C@@H]1C[C@@](C)(c2cccc(O)c2)[C@@H](C)CN1CCc1ccccc1	15	20	110	120
CCC[C@@H]1C[C@@](C)(c2cccc(O)c2)[C@@H](C)CN1CC	100	–	270	> 1000
CCC[C@@H]1C[C@@](C)(c2cccc(O)c2)[C@@H](C)CN1CCCc1ccccc1	16	19	74	180
C[C@H]1CN(CCc2ccccc2)[C@H](CCCc2ccccc2)C[C@@]1(C)c1cccc(O)c1	360	230	260	320
